Where two headings read alike, the source gives them in different places.

The source of these data is US7528124B2, “1,3-dihydro-2H-indol-2-one derivative” (Taisho Pharmaceutical Co., Ltd., priority 2003, dated 2009).

This data set in a line: Measurement of drug concentration in plasma and brain following oral administration to rats (LC/MS/MS). The class given is in vivo, Sprague-Dawley rats. Conditions: rat; for concentration at 1 h: Table 2, 1 hour after administration. The procedure: Measurement of Drug Concentration in Plasma and Brain following Oral Administration to Rats
The compound of Example 1 and compound A (WO01/55130, listed in EXEMPLE 1) were orally administered to Sprague-Dawley rats (male, 8 weeks) at a dose of 5 mL/kg (10 mg/kg) as solutions (each compound was dissolved with 0.03 mol/L HCl containing 5% Cremophor EL, and concentration was prepared by 2 mg/ml).
Blood was collected from the tail vein at 1 and 2 hours after administration. Immediately the brain was excised, 20% homogenate was prepared with distilled water, for assay sample. Similarly, 0.3 mL of blood was collected from the tail vein at 2, 4, 8, and 24 hours following administration, and the plasma following centrifugation was used as a sample.
The concentrations of the compound of Example 1 and compound A in plasma were measured using liquid chromatography tandem mass spectrometry (LC/MS/MS). Specifically, 200 μL of acetonitrile was added to 50 μL of plasma or brain homogenate, vortex mixed and centrifuged. The resulting supernatant was put in a liquid chromatograph with an Agilent Zorbax SB-C18 5 μm column (50 mm long, 2.1 mm in diameter). The elute was 0.1% acetic acid/acetonitrile containing 0.1% acetic acid. The MS/MS detection were performed using a Sciex API3000 LC/MS/MS system with ESI for ionization, in positive ions and MRM mode for monitoring. The m/z 632→472 and m/z 630→472 were monitored for the compound of Example 1 and compound A, respectively.
The concentration of plasma and brain at each sampling point and mean plasma levels after oral administration were shown in Table 2 and Table 3, respectively.

For the molecule `COc1ccc(S(=O)(=O)N2C(=O)C(c3ccccc3OC)(N3C[C@H](F)C[C@H]3C(=O)N(C)C)c3cc(Cl)ccc32)c(OC)c1` (single isomer, unassigned) [Example 1], the concentration at 1 h came to 35 ng/g (male, Sprague-Dawley, brain, po, 10 mg/kg, brain homogenate, average of three, read-out: Drug concentration, brain, 1 hour) and 440 ng/mL (male, Sprague-Dawley, plasma, po, 10 mg/kg, average of three, read-out: Drug concentration, plasma, 1 hour). In addition, the concentration at 2 h was found to be 219 ng/mL (male, Sprague-Dawley, plasma, po, 10 mg/kg, Table 2, 2 hours after administration, average of three, read-out: Drug concentration, plasma, 2 hours); 139 ng/mL (male, Sprague-Dawley, plasma, po, 10 mg/kg, Table 3, serial tail vein sampling, 2 hours, average of three, read-out: Drug concentration in plasma, 2 hours); 11 ng/g (male, Sprague-Dawley, Table 2, oral 10 mg/kg, 2 hours after administration, brain homogenate, average of three, ND: below the quantification detection limit of 5 ng/mL, read-out: Drug concentration, brain, 2 hours). For the same molecule, where the note is “male, Sprague-Dawley, plasma, po, 10 mg/kg, Table 3, serial tail vein sampling, 4 hours, average of three”, the concentration at 4 h worked out at 51 ng/mL. For the setting “male, Sprague-Dawley, plasma, po, 10 mg/kg, Table 3, serial tail vein sampling, 8 hours, average of three”, this molecule displayed a concentration at 8 h of 10 ng/mL. The “plasma levels compared with compound A” value (oral 10 mg/kg, after 2 hours) is “higher plasma levels”. Further, the “brain levels compared with compound A” value (oral 10 mg/kg, at 1 and 2 hours) is “higher than those of compound A”.
